Test results from patent US20240247021A1, “CRYSTAL FORMS OF KUDING SAPONIN A COMPOUND, PHARMACEUTICAL COMPOSITION AND USE THEREOF” (SHANGHAI KE PHARMACEUTICAL CO., LTD, priority 2021, published 2024).

Test: Conditions under which the crystal forms exist stably
Type: physicochemical

Row | SMILES | conditions under which the crystal form exists stably
1 | C[C@@H]1O[C@@H](O[C@H]2[C@H](O[C@H]3CC[C@]4(C)[C@H]5C[C@H](O)C6=C7[C@]8(CC[C@](C)(OC8=O)[C@@]7(C)O)CC[C@@]6(C)[C@]5(C)CC[C@H]4C3(C)C)OC[C@H](O)[C@@H]2O[C@@H]2O[C@H](CO)[C@@H](O)[C@H](O)[C@H]2O)[C@H](O)[C@H](O)[C@H]1O [crystal form D, Kudinoside A] | can only exist stably when the sample is wet
2 | C[C@@H]1O[C@@H](O[C@H]2[C@H](O[C@H]3CC[C@]4(C)[C@H]5C[C@H](O)C6=C7[C@]8(CC[C@](C)(OC8=O)[C@@]7(C)O)CC[C@@]6(C)[C@]5(C)CC[C@H]4C3(C)C)OC[C@H](O)[C@@H]2O[C@@H]2O[C@H](CO)[C@@H](O)[C@H](O)[C@H]2O)[C@H](O)[C@H](O)[C@H]1O [crystal form G, Kudinoside A] | can only exist stably when the sample is wet
3 | C[C@@H]1O[C@@H](O[C@H]2[C@H](O[C@H]3CC[C@]4(C)[C@H]5C[C@H](O)C6=C7[C@]8(CC[C@](C)(OC8=O)[C@@]7(C)O)CC[C@@]6(C)[C@]5(C)CC[C@H]4C3(C)C)OC[C@H](O)[C@@H]2O[C@@H]2O[C@H](CO)[C@@H](O)[C@H](O)[C@H]2O)[C@H](O)[C@H](O)[C@H]1O [crystal form L, Kudinoside A] | can only exist stably at high temperature
4 | C[C@@H]1O[C@@H](O[C@H]2[C@H](O[C@H]3CC[C@]4(C)[C@H]5C[C@H](O)C6=C7[C@]8(CC[C@](C)(OC8=O)[C@@]7(C)O)CC[C@@]6(C)[C@]5(C)CC[C@H]4C3(C)C)OC[C@H](O)[C@@H]2O[C@@H]2O[C@H](CO)[C@@H](O)[C@H](O)[C@H]2O)[C@H](O)[C@H](O)[C@H]1O [crystal form I2, Kudinoside A] | cannot exist stably
5 | C[C@@H]1O[C@@H](O[C@H]2[C@H](O[C@H]3CC[C@]4(C)[C@H]5C[C@H](O)C6=C7[C@]8(CC[C@](C)(OC8=O)[C@@]7(C)O)CC[C@@]6(C)[C@]5(C)CC[C@H]4C3(C)C)OC[C@H](O)[C@@H]2O[C@@H]2O[C@H](CO)[C@@H](O)[C@H](O)[C@H]2O)[C@H](O)[C@H](O)[C@H]1O [crystal form E, Kudinoside A] | can only exist stably when the sample is wet
6 | C[C@@H]1O[C@@H](O[C@H]2[C@H](O[C@H]3CC[C@]4(C)[C@H]5C[C@H](O)C6=C7[C@]8(CC[C@](C)(OC8=O)[C@@]7(C)O)CC[C@@]6(C)[C@]5(C)CC[C@H]4C3(C)C)OC[C@H](O)[C@@H]2O[C@@H]2O[C@H](CO)[C@@H](O)[C@H](O)[C@H]2O)[C@H](O)[C@H](O)[C@H]1O [crystal form B, Kudinoside A] | can only exist stably at high temperature
